Literature values as cited in patent publication US11491229B2, “Medication system” (priority 2015, dated 2022).

How the values were obtained:
CB1 receptor = CB1 receptor (Homo sapiens, UniProt P21554)
[1] = biological target: T1, androgen receptor in the prostate gland (Homo sapiens, UniProt P10275)
T1 sequence (P10275 1-920): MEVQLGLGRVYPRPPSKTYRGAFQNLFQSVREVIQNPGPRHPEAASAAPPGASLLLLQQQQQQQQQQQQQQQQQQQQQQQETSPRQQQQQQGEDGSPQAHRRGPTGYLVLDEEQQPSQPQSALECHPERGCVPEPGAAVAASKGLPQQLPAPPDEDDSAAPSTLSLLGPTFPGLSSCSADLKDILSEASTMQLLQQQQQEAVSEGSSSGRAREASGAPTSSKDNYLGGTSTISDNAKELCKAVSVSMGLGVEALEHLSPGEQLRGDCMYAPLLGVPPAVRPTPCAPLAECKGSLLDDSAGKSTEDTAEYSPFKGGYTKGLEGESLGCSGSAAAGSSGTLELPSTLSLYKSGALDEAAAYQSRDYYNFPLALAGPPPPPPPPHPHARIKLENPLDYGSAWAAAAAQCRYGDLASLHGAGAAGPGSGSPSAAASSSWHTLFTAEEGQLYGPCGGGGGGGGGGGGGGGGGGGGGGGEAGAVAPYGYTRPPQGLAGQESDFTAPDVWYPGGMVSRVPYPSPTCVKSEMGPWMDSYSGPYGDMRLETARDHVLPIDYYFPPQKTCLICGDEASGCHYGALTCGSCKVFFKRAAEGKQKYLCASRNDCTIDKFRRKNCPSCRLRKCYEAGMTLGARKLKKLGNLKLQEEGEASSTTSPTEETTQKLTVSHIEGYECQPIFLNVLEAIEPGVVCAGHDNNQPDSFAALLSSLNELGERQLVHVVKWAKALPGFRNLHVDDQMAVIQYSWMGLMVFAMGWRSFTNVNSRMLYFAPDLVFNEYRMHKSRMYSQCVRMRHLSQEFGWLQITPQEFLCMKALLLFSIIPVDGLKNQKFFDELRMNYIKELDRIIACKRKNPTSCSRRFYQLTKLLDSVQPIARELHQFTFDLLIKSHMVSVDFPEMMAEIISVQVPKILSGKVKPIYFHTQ

prostate cell line, PC-3 = conditions: Ruiz et al. 1999
[2] = not given; remark: listed apart in the source
[3] = tested on: estrogen receptor-positive and estrogen receptor-negative breast cancer cell lines; conditions: inducing apoptosis in a concentration-dependent manner
breast tumors = conditions: mice models
[4] = tested on: nontumorigenic mammary cells

Chain of CB1 receptor (P21554 whole entry): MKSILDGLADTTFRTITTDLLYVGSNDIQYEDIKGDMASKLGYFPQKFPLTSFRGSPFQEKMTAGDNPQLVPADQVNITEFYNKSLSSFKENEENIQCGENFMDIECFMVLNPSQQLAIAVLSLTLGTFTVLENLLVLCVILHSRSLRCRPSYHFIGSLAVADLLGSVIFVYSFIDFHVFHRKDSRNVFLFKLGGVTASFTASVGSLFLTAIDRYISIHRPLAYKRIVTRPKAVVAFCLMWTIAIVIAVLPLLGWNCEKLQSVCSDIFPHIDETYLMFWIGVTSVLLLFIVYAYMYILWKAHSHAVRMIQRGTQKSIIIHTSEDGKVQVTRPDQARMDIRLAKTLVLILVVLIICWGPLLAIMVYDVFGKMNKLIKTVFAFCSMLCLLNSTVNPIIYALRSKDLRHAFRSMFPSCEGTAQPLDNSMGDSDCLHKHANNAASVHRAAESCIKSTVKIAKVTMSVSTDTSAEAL

**Q.** For CCCc1cc(O)c2c(c1)OC(C)(C)[C@@H]1CCC(C)=C[C@@H]21 [THCV, Tetrahydrocannabivarin], which “CB1 receptor mode of action” value (CB1 receptor) is on record?
**A.** Its value is “antagonist”.

**Q.** Which “specific binding of dihydroxytestosterone to the androgen receptor” value [1] does the source give for CCCCCc1cc(O)c2c(c1)OC(C)(C)[C@@H]1CCC(C)=C[C@@H]21 [THC, Tetrahydrocannabinol] here?
**A.** The value was “inhibits specific binding”.

**Q.** What about the “time after administration at which pain reduction effects were felt (average)” value (cold-pressor test) of the same compound?
**A.** Its value is 180 min.

**Q.** What about the pain sensitivity (cold-pressor test after administration, smoked marijuana or oral dronabinol capsules 10 mg or 20 mg) of the same compound?
**A.** Its pain sensitivity is “decreased pain sensitivity”.

**Q.** What about the duration of effects (dronabinol compared with smoked marijuana) of the same compound?
**A.** Its duration of effects is “lasted longer than smoked marijuana”.

**Q.** And the apoptosis (prostate cell line, PC-3)?
**A.** The apoptosis was “causes apoptosis”.

**Q.** With vitamin E as the compound, how does the “reduction in breast cancer incidence” value ([2]; pre-menopausal women with a family history of breast cancer, highest quantity of vitamin E consumed) read?
**A.** The value was 43%.

**Q.** What about the “risk reduction of breast cancer” value ([2]; women without a family history of breast cancer) of the same compound?
**A.** The value was 16%.

**Q.** For C=C(C)[C@@H]1CCC(C)=C[C@H]1c1c(O)cc(CCCCC)cc1O [CBD, Cannabidiol], which “survival of breast cancer cell lines” value [3] is on record?
**A.** Its value is “inhibited the survival”.

**Q.** What about the “affinity to cannabinoid receptors” value (cannabinoid receptors) of the same compound?
**A.** Its value is “low affinity”.

**Q.** And the “effect on breast tumors” value (breast tumors)?
**A.** The value was “shrink breast tumors, and obstruct growth and metastasis”.

**Q.** And the “effect on nontumorigenic mammary cells” value [4]?
**A.** The value was “little effect”.
